From article PMC8921064 (Archives of Toxicology, 2022)
Like-named read-outs stand apart in the source and are kept apart here.

Experiments:
[1] = test system: human liver microsomes (HLM); assay: Human liver microsomal incubation, metabolite formation quantified by UPLC; conditions: HLM
Protocol: (§1) The incubation mixtures were prepared and incubated in glass vials to avoid plastic binding of the substrates. The glass vials were capped to prevent substrate loss due to volatility. After preincubation of the incubation mixture at 37 °C for 1 min, the enzymatic reaction was initiated by adding microsomes to the incubation mixture which was subsequently incubated at 37 °C for 20 min. The reaction was terminated by adding 100 µl ice-cold acetonitrile followed by vortexing. After 5 min centrifugation at 5000 rpm (4000 × g), 4 °C, the supernatant was collected for ultraperformance liquid chromatography (UPLC) analysis. […] Therefore, a diisopropylether (DIPE) extraction of the metabolites was performed after the reaction was stopped by the addition of 20 µl 10% HClO4. To this end, the incubation mixture (total volume of 220 µl) was extracted three times with 1 ml DIPE. Each time, the upper organic layer was collected and the DIPE was subsequently evaporated from the combined organic fractions with a gentle stream of nitrogen. The residues were dissolved in 100 µl methanol and analyzed by UPLC.
(§2) The metabolites formed were analyzed and quantified using an Acquity UPLC system equipped with a photodiode array (PDA) detector (Waters, Milford, MA). The metabolites and their parent compound were separated on a reverse phase Acquity UPLC® BEH C18 column ([…], 1.7 µm, Waters, Milford, MA) and detected at wavelengths ranging from 190 to 400 nm. Eluent A was nano-pure water containing 0.1% trifluoroacetic acid (v/v), and eluent B was acetonitrile containing 0.1% trifluoroacetic acid (v/v). The gradient elution started from 90% A and 10% B applied from 0.0 min to 0.5 min, which was changed to 0% A and 100% B from 0.5 to 15.5 min and then kept at 0% A and 100% B from 15.5 min to 18.5 min, changed back to 90% A and 10% B from 18.5 to 18.6 min and then maintained at the starting conditions from 18.6 min until 22 min. The total run time was 22 min using a flow rate of 0.6 ml/min. The temperature of the column was set at 40 °C and that of the autosampler at 10 °C during the UPLC analysis. The injection volume was 3.5 µl. Metabolites were quantified using their peak area at the wavelength specified in Table 1, using calibration curves of available reference compounds. Metabolites were identified by comparing their retention time (RT) and UV spectrum to those of reference chemicals on UPLC. When reference chemicals were not available, metabolite identification by gas chromatography-triple quadrupole mass spectrometry (GC–MS/MS) was performed. The minor metabolites were identified by elution time and mass spectra both on UPLC and GC–MS/MS, and by comparison with available elution and spectral information from the literature.
(§3) The metabolite concentrations in the microsomal incubation mixtures as quantified by UPLC were used to calculate the rate of the enzymatic conversions in pmol/min/mg microsomal protein. The kinetic parameters KM and Vmax were obtained using a nonlinear regression curve fit applying the Michaelis Menten equation in GraphPad Prism 5 (San Diego, USA). To compare the catalytic efficiency of formation of the different metabolites the intrinsic clearance (Clint) was calculated as Vmax divided by KM.

[2] = test system: rat liver microsomes (RLM); assay: Rat liver microsomal incubation, metabolite formation quantified by UPLC; conditions: RLM
Protocol: as §1, §2, §3

[3] = test system: Salmonella typhimurium TA98; assay: Reverse mutation assay (Ames test), TA98; conditions: for Increase in the number of revertants compared to the concurrent solvent control: TA98, presence of 5% S9-mix, 10–100 µg; for Mutagenicity (conclusion): TA98, positive if more than threefold over control; for His + revertant colonies TA98 without S9-mix: mean ± SD of 3 plates
Protocol: Six concentrations of each compound were tested in triplicate in the absence and presence of 5% (v/v) S9-mix prepared from the livers of Aroclor 1254 treated Sprague–Dawley rats. The S9-mix contained 4 mM NADP, 5.8 mM glucose-6-phosphate, 0.1 M sodium phosphate pH 7.4, 8 mM MgCl2, 33 mM KCl and 5% S9 homogenate. Fresh bacterial cultures were prepared overnight to reach 10^9 cells/ml. The following solutions were pre-incubated in a rotating incubator at 70 rpm and 37 °C, and contained either 0.5 ml S9-mix (in case of S9 presence) or 0.5 ml 0.1 M potassium phosphate pH 7.4 (in case of S9 absence), 0.1 ml of a fresh bacterial culture (10^9 cells/ml) of TA98 or TA100, […] Top agar was melted and heated to 45 °C. After preincubation, the substrate solutions were added to 3 ml of the molten top agar and mixed by vortexing and the top agar mixture was poured onto a minimal glucose agar plate. After solidification of the top agar, the plates were incubated at 37 °C for 48 h. The number of revertant colonies per plate was automatically counted with the Instem Sorcerer Colony Counter (Staffordshire, UK). In the absence of S9-mix, 2-nitrofluorene (NF) and methylmethanesulfonate (MMS) were tested as positive controls for incubations with TA98 and TA100, respectively. In the presence of S9-mix, 2-aminoanthracene (2AA) was tested as a positive control in both TA98 and TA100. DMSO was tested as a solvent control in both tester strains.

[4] = test system: Salmonella typhimurium TA100; assay: Reverse mutation assay (Ames test), TA100; conditions: for Increase in the number of revertants compared to the concurrent solvent control: TA100, presence of 5% S9-mix, 10–100 µg; for Mutagenicity (conclusion): TA100, positive if more than twofold over control; for His + revertant colonies TA100 without S9-mix: mean ± SD of 3 plates; for Cytotoxicity at the test doses: TA100, absence of S9 mix
Protocol: Six concentrations of each compound were tested in triplicate in the absence and presence of 5% (v/v) S9-mix prepared from the livers of Aroclor 1254 treated Sprague–Dawley rats. The S9-mix contained 4 mM NADP, 5.8 mM glucose-6-phosphate, 0.1 M sodium phosphate pH 7.4, 8 mM MgCl2, 33 mM KCl and 5% S9 homogenate. Fresh bacterial cultures were prepared overnight to reach 10^9 cells/ml. The following solutions were pre-incubated in a rotating incubator at 70 rpm and 37 °C, and contained either 0.5 ml S9-mix (in case of S9 presence) or 0.5 ml 0.1 M potassium phosphate pH 7.4 (in case of S9 absence), 0.1 ml of a fresh bacterial culture (10^9 cells/ml) of TA98 or TA100, and 10–100 µg test compound. Top agar was melted and heated to 45 °C. After preincubation, the substrate solutions were added to 3 ml of the molten top agar and mixed by vortexing and the top agar mixture was poured onto a minimal glucose agar plate. After solidification of the top agar, the plates were incubated at 37 °C for 48 h. The number of revertant colonies per plate was automatically counted with the Instem Sorcerer Colony Counter (Staffordshire, UK). In the absence of S9-mix, 2-nitrofluorene (NF) and methylmethanesulfonate (MMS) were tested as positive controls for incubations with TA98 and TA100, respectively. In the presence of S9-mix, 2-aminoanthracene (2AA) was tested as a positive control in both TA98 and TA100. DMSO was tested as a solvent control in both tester strains.

[5] = test system: mouse skin; set-up: method as in Buening et al. [1979]; LaVoie et al. [1981]; conditions: mouse skin painting; ref Buening et al. [1979]; LaVoie et al. [1981]; cited from earlier work
[6] = test system: S. typhimurium TA98; conditions: cited from earlier work
[7] = test system: S. typhimurium TA100; conditions: cited from earlier work
[8] = ref Katarzyna Rudnicka et al. [2013]

## Cc1cccc2c1ccc1ccccc12 [1-Methylphenanthrene]
[1]; substrate 1-Methylphenanthrene
  Vmax, formation of 1-(Hydroxymethyl) phennathrene RT = 5.55 min: 475.3 ± 13.2 pmol/min/mg microsomal protein
  Vmax, formation of 1-Methylphenanthrol RT = 6.3 min: 14.7 ± 0.8 pmol/min/mg microsomal protein
  Vmax, formation of 1-Methylphenanthrol RT = 6.80 min: 77.3 ± 3.9 pmol/min/mg microsomal protein
  Vmax, formation of Dihydro-1-methylphenanthrene-diol RT = 2.32 min: 27.5 ± 4.6 pmol/min/mg microsomal protein
  Vmax, formation of Dihydro-1-methylphenanthrene-diol RT = 4.35 min: 20.6 ± 0.5 pmol/min/mg microsomal protein
[2]; substrate 1-Methylphenanthrene
  Vmax, formation of 1-(Hydroxymethyl) phennathrene RT = 5.55 min: 1926 ± 40.3 pmol/min/mg microsomal protein
  Vmax, formation of 1-Methylphenanthrol RT = 6.80 min: 33.1 ± 2.1 pmol/min/mg microsomal protein
  Vmax, formation of 1-Methylphenanthrol RT = 6.92 min: 24.0 ± 1.6 pmol/min/mg microsomal protein
  Vmax, formation of 1-Methylphenanthrol RT = 7.00 min: 17.3 ± 1.2 pmol/min/mg microsomal protein
  Vmax, formation of 1-Methylphenanthrol RT = 7.29 min: 9.0 ± 0.8 pmol/min/mg microsomal protein
  Vmax, formation of Dihydro-1-methylphenanthrene-diol RT = 3.43 min: 4.2 ± 0.4 pmol/min/mg microsomal protein
  Vmax, formation of Dihydro-1-methylphenanthrene-diol RT = 3.96 min: 5.2 ± 0.3 pmol/min/mg microsomal protein
  Vmax, formation of Dihydro-1-methylphenanthrene-diol RT = 4.35 min: 16.1 ± 1.3 pmol/min/mg microsomal protein
  Vmax, formation of Dihydro-1-methylphenanthrene-diol RT = 4.76 min: 14.0 ± 0.6 pmol/min/mg microsomal protein
[3]
  Increase in the number of revertants compared to the concurrent solvent control: up to 13 fold
  Mutagenicity (conclusion): showed mutagenicity
[4]
  Increase in the number of revertants compared to the concurrent solvent control: ≤ 6.8 fold
  Mutagenicity (conclusion): showed mutagenicity
[5]
  Tumor-initiating activity: neither phenanthrene nor its monomethylated analogs
[6]; [8]
  Increase in revertants: 8.4 fold
[6]; ref LaVoie et al. [1983]
  Increase in revertants: 3.2 fold
[7]; [8]
  Increase in revertants: 4.1 fold
[7]; ref LaVoie et al. [1983]
  Increase in revertants: 6.0 fold

## Cc1ccc2c(ccc3ccccc32)c1 [2-Methylphenanthrene]
[1]; substrate 2-Methylphenanthrene
  Vmax, formation of 2-(Hydroxymethyl)-phennathrene RT = 5.59 min: 562.0 ± 27.5 pmol/min/mg microsomal protein
  Vmax, formation of 2-Methylphenanthrol RT = 6.12 min: 16.3 ± 0.8 pmol/min/mg microsomal protein
  Vmax, formation of Dihydro-2-methylphenanthrene-diol RT = 3.09 min: 6.4 ± 0.5 pmol/min/mg microsomal protein
[2]; substrate 2-Methylphenanthrene
  Vmax, formation of 2-(Hydroxymethyl)-phennathrene RT = 5.59 min: 2174 ± 115.3 pmol/min/mg microsomal protein
  Vmax, formation of 2-Methylphenanthrol RT = 6.98 min: 76.0 ± 3.1 pmol/min/mg microsomal protein
  Vmax, formation of 2-Methylphenanthrol RT = 7.08 min: 11.2 ± 0.9 pmol/min/mg microsomal protein
  Vmax, formation of Dihydro-2-methylphenanthrene-diol RT = 4.26 min: 23.1 ± 2.7 pmol/min/mg microsomal protein
  Vmax, formation of Dihydro-2-methylphenanthrene-diol RT = 4.42 min: 16.2 ± 2.5 pmol/min/mg microsomal protein
[2]; substrate 2-Methylphenanthrene, KM NA
  Vmax, formation of 2-Methylphenanthrol RT = 6.12 min: 90.7 ± 3.8 pmol/min/mg microsomal protein
[3]
  Increase in the number of revertants compared to the concurrent solvent control: 2.2 fold
  Mutagenicity (conclusion): non-mutagenic
[4]; 10 µg/plate
  His + revertant colonies TA100 without S9-mix: 106±20
[4]; 20 µg/plate
  His + revertant colonies TA100 without S9-mix: 98±13
[4]; 40 µg/plate
  His + revertant colonies TA100 without S9-mix: 70±8
[4]
  Cytotoxicity at the test doses: showed cytotoxicity
  Increase in the number of revertants compared to the concurrent solvent control: no increased response was found
  Mutagenicity (conclusion): non-mutagenic
[5]
  Tumor-initiating activity: neither phenanthrene nor its monomethylated analogs

## Cc1ccc2ccc3ccccc3c2c1 [3-Methylphenanthrene]
[1]; substrate 3-Methylphenanthrene
  Vmax, formation of 3-(Hydroxymethyl)-phenanthrene RT = 5.62 min: 583.8 ± 19.6 pmol/min/mg microsomal protein
  Vmax, formation of Dihydro-3-methylphenanthrene-diol RT = 4.25 min: 65.0 ± 4.1 pmol/min/mg microsomal protein
  Vmax, formation of Dihydro-3-methylphenanthrene-diol RT = 4.42 min: 12.8 ± 0.8 pmol/min/mg microsomal protein
[2]; substrate 3-Methylphenanthrene
  Vmax, formation of 3-(Hydroxymethyl)-phenanthrene RT = 5.62 min: 2593 ± 305 pmol/min/mg microsomal protein
  Vmax, formation of 3-Methylphennathrol RT = 6.98 min: 82.6 ± 53.8 pmol/min/mg microsomal protein
  Vmax, formation of Dihydro-3-methylphenanthrene-diol RT = 4.25 min: 92.3 ± 25.1 pmol/min/mg microsomal protein
  Vmax, formation of Dihydro-3-methylphenanthrene-diol RT = 4.42 min: 20.4 ± 1.7 pmol/min/mg microsomal protein
[3]; 2 µg/plate
  His + revertant colonies TA98 without S9-mix: 16±3
[3]; 4 µg/plate
  His + revertant colonies TA98 without S9-mix: 17±4
[3]; 10 µg/plate
  His + revertant colonies TA98 without S9-mix: 14±1
[3]; 20 µg/plate
  His + revertant colonies TA98 without S9-mix: 13±2
[3]; 40 µg/plate
  His + revertant colonies TA98 without S9-mix: 9±4
[3]; TA98, absence of S9 mix
  Cytotoxicity at the test doses: showed cytotoxicity
[3]
  Increase in the number of revertants compared to the concurrent solvent control: 2.2 fold
  Mutagenicity (conclusion): non-mutagenic
[3]; TA98 without S9-mix, 40 µg/plate
  Bacterial background lawn: S
[4]; 2 µg/plate
  His + revertant colonies TA100 without S9-mix: 112±14
[4]; 4 µg/plate
  His + revertant colonies TA100 without S9-mix: 112±9
[4]; 10 µg/plate
  His + revertant colonies TA100 without S9-mix: 119±11
[4]; 20 µg/plate
  His + revertant colonies TA100 without S9-mix: 83±34
[4]; 40 µg/plate
  His + revertant colonies TA100 without S9-mix: 75±4
[4]
  Cytotoxicity at the test doses: showed cytotoxicity
  Increase in the number of revertants compared to the concurrent solvent control: no increased response was found
  Mutagenicity (conclusion): non-mutagenic
[5]
  Tumor-initiating activity: neither phenanthrene nor its monomethylated analogs
